Reference: patent US10633419B2, “Immunomodulators” (BRISTOL-MYERS SQUIBB COMPANY, priority 2014, dated 2020)
Positions of bridges follow the written chain, without caps; N, C: chain ends. Non-standard residues stand in square brackets, D forms with d. Residues, ends and D or L forms follow the SMILES beside them. *: point of attachment. δOrn(Nα-Octadecanedioyl) = O=C(O)CCCCCCCCCCCCCCCCC(=O)N[C@@H](CCCN*)C(=O)O; X6 = O=C(O)CCCCCCCCCCCCCCCCC(=O)N[C@@H](CCC(=O)NCCCOCCOCCOCCCN*)C(=O)O; X4 = O=C(O)CCCCCCCCCCCCCCCCC(=O)N[C@@H](CC(=O)NCCCOCCOCCOCCCN*)C(=O)O; Trp(1-CH2COOH) = N[C@@H](Cc1cn(CC(=O)O)c2ccccc12)C(=O)O; Phe(4-F) = N[C@@H](Cc1ccc(F)cc1)C(=O)O; NH(CH2)12COOH = O=C(O)CCCCCCCCCCCCN*; Hyp = O=C(O)[C@@H]1C[C@@H](O)CN1; NHtetradecyl = CCCCCCCCCCCCCCN*; NMeNle = CCCC[C@H](NC)C(=O)O; Tle = CC(C)(C)[C@H](N)C(=O)O; Pip = O=C(O)[C@@H]1CCCCN1; NMeA = CN[C@@H](C)C(=O)O; Aun = NCCCCCCCCCCC(=O)O; Dab = NCC[C@H](N)C(=O)O; Dap = NC[C@H](N)C(=O)O

biological target: T1, PD-L1 (Homo sapiens, UniProt Q9NZQ7); assay: PD-1/PD-L1 Homogenous Time-Resolved Fluorescence (HTRF) binding assay (PD-1-Ig/PD-L1-His); conditions: not given
T1 construct: hPDL1(19-239)-TVMV-His; made in house; host or cells: HEK293T
T1 sequence (Q9NZQ7 with tags, fused parts or gaps): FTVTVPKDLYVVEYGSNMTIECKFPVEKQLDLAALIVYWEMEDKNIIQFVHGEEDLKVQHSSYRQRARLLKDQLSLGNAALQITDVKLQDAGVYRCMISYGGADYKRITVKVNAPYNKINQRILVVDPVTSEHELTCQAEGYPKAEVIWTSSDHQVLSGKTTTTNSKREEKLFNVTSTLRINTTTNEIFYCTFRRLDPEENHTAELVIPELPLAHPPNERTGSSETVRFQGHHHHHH
Excerpt: The ability of the macrocyclic peptides of the present disclosure to bind to PD-L1 was investigated using a PD-1/PD-L1 Homogenous Time-Resolved Fluorescence (HTRF) binding assay.
Homogenous Time-Resolved Fluorescence (HTRF) Assays of Binding of Soluble PD-1 to Soluble PD-L1. Soluble PD-1 and soluble PD-L1 refers to proteins with carboxyl-end truncations that remove the transmembrane-spanning regions and are fused to heterologous sequences, specifically the Fc portion of the human immunoglobuling G sequence (Ig) or the hexahistidine epitope tag (His). All binding studies were performed in an HTRF assay buffer consisting of dPBS supplemented with 0.1% (w/v) bovine serum albumin and 0.05% (v/v) Tween-20. For the PD-1-Ig/PD-L1-His binding assay, inhibitors were pre-incubated with PD-L1-His (10 nM final) for 15 m in 4 μl of assay buffer, followed by addition of PD-1-Ig (20 nM final) in 1 μl of assay buffer and further incubation for 15m. PD-L1 fusion proteins from either human, cynomologous macaques, mouse, or other species were used. HTRF detection was achieved using europium crypate-labeled anti-Ig monoclonal antibody (1 nM final) and allophycocyanin (APC) labeled anti-His monoclonal antibody (20 nM final). Antibodies were diluted in HTRF detection buffer and 5 μl was dispensed on top of binding reaction. The reaction was allowed to equilibrate for 30 minutes and signal (665 nm/620 nm ratio) was obtained using an EnVision fluorometer. Additional binding assays were established between PD-1-Ig/PD-L2-His (20 and 5 nM, respectively), CD80-His/PD-L1-Ig (100 and 10 nM, respectively) and CD80-His/CTLA4-Ig (10 and 5 nM, respectively). Binding/competition studies between biotinylated Compound No. 71 and human PD-L1-His were performed as follows. Macrocyclic peptide inhibitors were pre-incubated with PD-L1-His (10 nM final) for 60 minutes in 4 μl of assay buffer followed by addition of biotinylated Compound No. 71 (0.5 nM final) in 1 μl of assay buffer. Binding was allowed to equilibrate for 30 minutes followed by addition of europium crypated labeled Streptavidin (2.5 pM final) and APC-labeled anti-His (20 nM final) in 5 μl of HTRF buffer. The reaction was allowed to equilibrate for 30m and signal (665 nm/620 nm ratio) was obtained using an EnVision fluorometer.
Recombinant Proteins. Carboxyl-truncated human PD-1 (amino acids 25-167) with a C-terminal human Ig epitope tag [hPD-1 (25-167)-3S-IG] and human PD-L1 (amino acids 18-239) with a C-terminal His epitope tag [hPD-L1(19-239)-tobacco vein mottling virus protease cleavage site (TVMV)-His] were expressed in HEK293T cells and purified sequentially by recombinant Protein A affinity chromatography and size exclusion chromatography. Human PD-L2-His (Sino Biologicals), CD80-His (Sino Biologicals), CTLA4-Ig (RnD Systems) were all obtained through commercial sources.

| Compound | IC50 [nM] |
| --- | --- |
| CCCC[C@H]1C(=O)N(C)[C@@H](CCCC)C(=O)N[C@@H](CCC(=O)O)C(=O)N[C@H](C(=O)NCC(=O)N[C@@H](Cc2cn(CCCCCNC(=O)CCC(=O)Oc3c(C)c(C)c4c(c3C)CC[C@@](C)(CCC[C@H](C)CCC[C@H](C)CCCC(C)C)O4)nn2)C(=O)N[C@@H](CC(=O)O)C(N)=O)CSCC(=O)N[C@@H](Cc2ccc(O)cc2)C(=O)N(C)[C@@H](C)C(=O)N[C@@H](CC(=O)O)C(=O)N2CCC[C@H]2C(=O)N[C@@H](Cc2c[nH]cn2)C(=O)N[C@@H](CCCCN)C(=O)N2C[C@H](O)C[C@H]2C(=O)N[C@@H](Cc2c[nH]c3ccccc23)C(=O)N[C@@H](CCCCN)C(=O)N[C@@H](Cc2c[nH]c3ccccc23)C(=O)N1C [Example 14056] | 100 to 1600 |

same assay, conditions: inhibition of PD-1-Ig binding to PD-L1-TVMV-His; value given as range class; read-out: HTRF IC50

| Compound | IC50 [nM] |
| --- | --- |
| CCCC[C@H]1C(=O)N(C)[C@@H](CCCC)C(=O)N[C@@H](CC(C)C)C(=O)N[C@H](C(=O)NCC(=O)N[C@@H](CC(=O)O)C(=O)NCCCOCCOCCOCCCNC(=O)CC[C@H](NC(=O)CCCCCCCCCCCCCCCCC(=O)O)C(=O)O)CSCC(=O)N[C@@H](Cc2ccc(F)cc2)C(=O)N2CCCC[C@H]2C(=O)N[C@@H](CC(=O)O)C(=O)N2CCC[C@H]2C(=O)N[C@@H](CN)C(=O)N[C@@H](CCC(=O)O)C(=O)N2C[C@H](O)C[C@H]2C(=O)N[C@@H](Cc2c[nH]c3ccccc23)C(=O)N[C@@H](CCN)C(=O)N[C@@H](Cc2cn(CC(=O)O)c3ccccc23)C(=O)N1C [Example 11264] ({CH2CO}-[Phe(4-F)][Pip]DP[Dap]E[Hyp]W[Dab][Trp(1-CH2COOH)][NMeNle][NMeNle]LCGD-X6; thioether N-14) | 0.3 to 9.9 |
| CCCC[C@H]1C(=O)N(C)[C@@H](CCCC)C(=O)N[C@@H](CC(C)C)C(=O)N[C@H](C(=O)NCC(=O)N[C@@H](CC(=O)NCCC[C@H](NC(=O)CCCCCCCCCCCCCCCCC(=O)O)C(=O)O)C(=O)O)CSCC(=O)N[C@@H](Cc2ccc(F)cc2)C(=O)N2CCCC[C@H]2C(=O)N[C@@H](CC(=O)O)C(=O)N2CCC[C@H]2C(=O)N[C@@H](CN)C(=O)N[C@@H](CC(C)C)C(=O)N2C[C@H](O)C[C@H]2C(=O)N[C@@H](Cc2c[nH]c3ccccc23)C(=O)N[C@@H](CCN)C(=O)N[C@@H](Cc2cn(CC(=O)O)c3ccccc23)C(=O)N1C [Example 13145] ({CH2CO}-[Phe(4-F)][Pip]DP[Dap]L[Hyp]W[Dab][Trp(1-CH2COOH)][NMeNle][NMeNle]LCGD(δOrn(Nα-Octadecanedioyl))-OH; thioether N-14) | 10 to 99 |
| CCCC[C@H]1C(=O)N(C)[C@@H](CCCC)C(=O)N[C@@H](CC(C)C)C(=O)N[C@H](C(=O)NCC(=O)NCC(=O)N[C@@H](CC(=O)O)C(=O)NCCCCCCCCCCCCC(=O)O)CSCC(=O)N[C@@H](Cc2ccc(O)cc2)C(=O)N(C)[C@@H](C)C(=O)N[C@@H](CC(=O)O)C(=O)N2CCC[C@H]2C(=O)N[C@@H](Cc2cnc[nH]2)C(=O)N[C@@H](CCCCN)C(=O)N2C[C@H](O)C[C@H]2C(=O)N[C@@H](Cc2c[nH]c3ccccc23)C(=O)N[C@@H](CCCCN)C(=O)N[C@@H](Cc2cn(CC(=O)O)c3ccccc23)C(=O)N1C [Example 11220] ({CH2CO}-Y[NMeA]DPHK[Hyp]WK[Trp(1-CH2COOH)][NMeNle][NMeNle]LCGGD-{NH(CH2)12COOH}; thioether N-14) | 10 to 99 |
| CCCCCCCCCCCCCCNC(=O)CNC(=O)CNC(=O)[C@@H]1CSCC(=O)N[C@@H](Cc2ccc(O)cc2)C(=O)N(C)[C@@H](C)C(=O)N[C@@H](CC(N)=O)C(=O)N2CCC[C@H]2C(=O)N[C@@H](CCN)C(=O)N[C@@H](CC(C)C)C(=O)N2C[C@H](O)C[C@H]2C(=O)N[C@@H](Cc2c[nH]c3ccccc23)C(=O)N[C@@H](C(C)(C)C)C(=O)N[C@@H](Cc2c[nH]c3ccccc23)C(=O)N(C)[C@@H](CCCC)C(=O)N(C)[C@@H](CCCC)C(=O)N[C@@H](CCCNC(=N)N)C(=O)N1 [Example 11107] ({CH2CO}-Y[NMeA]NP[Dab]L[Hyp]W[Tle]W[NMeNle][NMeNle]RCGG-NHtetradecyl; thioether N-14) | 100 to 1600 |
| CCCC[C@H]1C(=O)N(C)[C@@H](CCCC)C(=O)N[C@@H](CC(C)C)C(=O)N[C@H](C(=O)NCC(=O)NCC(=O)NCC(=O)NCCCCCCCCCCC(=O)O)CSCC(=O)N[C@@H](Cc2ccc(O)cc2)C(=O)N(C)[C@@H](C)C(=O)N[C@@H](CC(N)=O)C(=O)N2CCC[C@H]2C(=O)N[C@@H](CN)C(=O)N[C@@H](CCC(=O)O)C(=O)N2C[C@H](O)C[C@H]2C(=O)N[C@@H](Cc2c[nH]c3ccccc23)C(=O)N[C@@H](CCN)C(=O)N[C@@H](Cc2cn(CC(=O)O)c3ccccc23)C(=O)N1C [Example 11093] ({CH2CO}-Y[NMeA]NP[Dap]E[Hyp]W[Dab][Trp(1-CH2COOH)][NMeNle][NMeNle]LCGGG[Aun]-OH; thioether N-14) | 10 to 99 |
| CCCC[C@H]1C(=O)N(C)[C@@H](CCCC)C(=O)N[C@@H](CC(C)C)C(=O)N[C@H](C(=O)NCC(=O)N[C@@H](CC(=O)O)C(=O)NCC(=O)NCCCCCCCCCCC(=O)O)CSCC(=O)N[C@@H](Cc2ccc(O)cc2)C(=O)N(C)[C@@H](C)C(=O)N[C@@H](CC(N)=O)C(=O)N2CCC[C@H]2C(=O)N[C@@H](CN)C(=O)N[C@@H](CC(C)C)C(=O)N2C[C@H](O)C[C@H]2C(=O)N[C@@H](Cc2c[nH]c3ccccc23)C(=O)N[C@@H](CCN)C(=O)N[C@@H](Cc2cn(CC(=O)O)c3ccccc23)C(=O)N1C [Example 11099] ({CH2CO}-Y[NMeA]NP[Dap]L[Hyp]W[Dab][Trp(1-CH2COOH)][NMeNle][NMeNle]LCGDG[Aun]-OH; thioether N-14) | 0.3 to 9.9 |

The next lines start with the values.

| IC50 [nM] | Compound |
| --- | --- |
| 10 to 99 | CCCC[C@H]1C(=O)N(C)[C@@H](CCCC)C(=O)N[C@@H](CC(C)C)C(=O)N[C@H](C(=O)NCCCOCCOCCOCCCNC(=O)C[C@H](NC(=O)CCCCCCCCCCCCCCCCC(=O)O)C(=O)O)CSCC(=O)N[C@@H](Cc2ccc(O)cc2)C(=O)N(C)[C@@H](C)C(=O)N[C@@H](CC(N)=O)C(=O)N2CCC[C@H]2C(=O)N[C@@H](CN)C(=O)N[C@@H](CC(C)C)C(=O)N2C[C@H](O)C[C@H]2C(=O)N[C@@H](Cc2c[nH]c3ccccc23)C(=O)N[C@@H](CCN)C(=O)N[C@@H](Cc2cn(CC(=O)O)c3ccccc23)C(=O)N1C [Example 11258] ({CH2CO}-Y[NMeA]NP[Dap]L[Hyp]W[Dab][Trp(1-CH2COOH)][NMeNle][NMeNle]LC-X4; thioether N-14) |
| 10 to 99 | CCCC[C@H]1C(=O)N(C)[C@@H](CCCC)C(=O)N[C@@H](CC(C)C)C(=O)N[C@H](C(=O)N[C@@H](Cc2cn(CCC(NC(=O)CCCCCCCCCCCCCCCCC(=O)O)C(=O)O)nn2)C(=O)O)CSCC(=O)N[C@@H](Cc2ccc(O)cc2)C(=O)N(C)[C@@H](C)C(=O)N[C@@H](CC(N)=O)C(=O)N2CCC[C@H]2C(=O)N[C@@H](CN)C(=O)N[C@@H](CC(C)C)C(=O)N2C[C@H](O)C[C@H]2C(=O)N[C@@H](Cc2c[nH]c3ccccc23)C(=O)N[C@@H](CCN)C(=O)N[C@@H](Cc2cn(CC(=O)O)c3ccccc23)C(=O)N1C (some centres unmarked) [Example 13129] |
| 0.3 to 9.9 | CCCC[C@H]1C(=O)N(C)[C@@H](CCCC)C(=O)N[C@@H](CC(C)C)C(=O)N[C@H](C(=O)NCC(=O)N[C@@H](Cc2cn(CCCNC(=O)CCCCCCCCCCCCCCCCC(=O)O)nn2)C(=O)O)CSCC(=O)N[C@@H](Cc2ccc(O)cc2)C(=O)N(C)[C@@H](C)C(=O)N[C@@H](CC(N)=O)C(=O)N2CCC[C@H]2C(=O)N[C@@H](CN)C(=O)N[C@@H](CC(C)C)C(=O)N2C[C@H](O)C[C@H]2C(=O)N[C@@H](Cc2c[nH]c3ccccc23)C(=O)N[C@@H](CCN)C(=O)N[C@@H](Cc2cn(CC(=O)O)c3ccccc23)C(=O)N1C [Example 14126] |
| 10 to 99 | CCCC[C@H]1C(=O)N(C)[C@@H](CCCC)C(=O)N[C@@H](CC(C)C)C(=O)N[C@H](C(=O)NCC(=O)N[C@@H](CC(=O)O)C(=O)N[C@@H](CC(=O)O)C(=O)NCCCCCCCCCCCCC(=O)O)CSCC(=O)N[C@@H](Cc2ccc(O)cc2)C(=O)N(C)[C@@H](C)C(=O)N[C@@H](CC(N)=O)C(=O)N2CCC[C@H]2C(=O)N[C@@H](CN)C(=O)N[C@@H](CC(C)C)C(=O)N2C[C@H](O)C[C@H]2C(=O)N[C@@H](Cc2c[nH]c3ccccc23)C(=O)N[C@@H](CCN)C(=O)N[C@@H](Cc2cn(CC(=O)O)c3ccccc23)C(=O)N1C [Example 11217] ({CH2CO}-Y[NMeA]NP[Dap]L[Hyp]W[Dab][Trp(1-CH2COOH)][NMeNle][NMeNle]LCGDD-{NH(CH2)12COOH}; thioether N-14) |
